“Also recorded” adds a separate entry of the source. Where two headings read alike, the source gives them in different places. Where a SMILES comes first, the peptide text is derived from it.
Columns and labels:
[1] = target: T1, oncogenic ras-p21 (Val 12-p21) (Homo sapiens, UniProt P01112, G12V); conditions: cited from earlier work
T1 construct: host or cells: microinjected into Xenopus laevis oocytes

[2] = tested on: TUC-3 cells; conditions: cited from earlier work
[3] = tested on: BMRPA1 cells; conditions: cited from earlier work
[4] = tested on: insulin-activated wild-type ras-p21; conditions: cited from earlier work
[5] = tested on: BMRPA1 pancreatic acinar cells; test: Peptide incubation with normal BMRPA1 cells
Description: As described in several prior publications (16, 17, 20), we have developed two cell lines, one a normal contact-inhibited line of rat pancreatic acinar cells, called BMRPA1.430 (BMRPA1) cells and the other a pancreatic acinar carcinoma obtained by transfection of BMRPA1 cells with a plasmid containing an activated human K-ras oncogene [single base mutation at codon 12, valine substitution for the wild type glycine in the ras protein (K-ras^val12); a kind gift of Dr. M. Perucho (CIBR, La Jolla, Calif.)] and a neomycin resistance gene. […] In addition, they phenotypically maintain differentiated cell functions such as continued enzyme production and activation of zymogen secretion by secretagogue.
Approximately 300,000 cells (either BMRPA1 or TUC-3) were plated in each of six wells and were allowed to adhere overnight. In one set of experiments, the initial media consisted of DMEM with 10% fetal bovine serum that contained no peptide. In another set of experiments, the initial media contained peptide. In the first set, media containing peptide was added after 24 hours; in both sets, after the first 24 hours, the media was changed every 24 hours and always contained peptide at a particular concentration. Cells were observed daily for three weeks for changes in morphology and growth characteristics. Peptides were present at concentrations of […].

[6] = tested on: TUC-3 cells; test: Explantation of peptide-treated, morphologically revertant TUC-3 cells into nude mice; format: in vivo, Nu/Nu mice; conditions: for Tumor Nodule Size: 5 × 10^6 TUC-3 cells treated 2 weeks with peptide, posterior cervical fat pad, 5 nude mice, mean ± SD
Protocol: To evaluate cells that appeared to be morphologically revertant to the normal phenotype, approximately 5×10^6 morphologically revertant TUC-3 cells treated for two weeks with 100 μg/ml of PNC-2 were injected subcutaneously into the posterior cervical fatpad of each of five Nu/Nu mice. Similarly, 5×10^6 untreated TUC-3 cells were explanted into another five Nu/Nu mice. Daily observations, over a 120 day period, were made on both sets of mice to determine if tumor nodules appeared at the site of injection.

[7] = tested on: ras-transformed pancreatic cancer (TUC-3) cells; test: Peptide incubation with TUC-3 cells (morphology, phenotypic reversion); format: cell-based, rat
[8] = target: T2, Val 12-Ha-ras-p21 (Homo sapiens, UniProt P01112, G12V); test: Co-immunoprecipitation of raf, MEK, JNK and MAPK with injected Val 12-Ha-ras-p21 in oocytes; format: cell-based, Xenopus laevis; conditions: peptide co-injected with Val 12-p21 into oocytes; anti-Ha-ras immunoprecipitate (FIG. 4A)
T2 construct: host or cells: protein microinjected into Xenopus laevis oocytes
Protocol: In these experiments, the Ha-ras form of Val 12-p21 was injected into oocytes (100 ug/ml, 50 nl per oocyte) either alone or together with inhibitory p21 peptide (residues 96-110 shown in this figure). […] The lysate was centrifuged for 15 min at 17000×g at 4° C., and the supernatant was either used directly. The lysates were then subjected to immunoprecipitation using an anti-Ha-ras antibody (CalBiochem). In this procedure, cell lysate was first pre-cleared by incubation with 50 ul of protein A beads for 1 hr at room temperature, followed by centrifugation. Anti-Ha-ras antibody was added to the lysate such that 0.1 ug antibody was added per 250 ug of pre-cleared lysate protein. A volume of 25 μl protein A agarose beads (Sigma) was then added to the incubation mixture, and the resulting mixture was incubated overnight at 4° C., after which the mixture was centrifuged, and the immunoprecipitate was washed three times with 0.5 ml of kinase buffer as described above. Immunoprecipitates were subjected to SDS-PAGE as described above in the preceding paragraph and blotted with anti-Ha-ras (1:2000 with 0.25% BSA), anti-raf (CalBiochem, San Diego, Calif.), diluted 1:2000 with 0.25% BSA, anti-JNK polyclonal antibody (1:2000), anti-MEK (CalBiochem) and anti-MAPK, diluted 1:2000 with 0.25% BSA. […]

[9] = target: Val 12-p21-JNK interaction (Homo sapiens, UniProt P01112, G12V); conditions: cited from earlier work
[10] = target: T1, oncogenic ras-p21 (Val 12-p21); test: Val 12-p21-induced oocyte maturation; format: cell-based, Xenopus laevis; conditions: peptide injected together with Val 12-p21

## CO[C@@H]1[C@H](N(C)C(=O)c2ccccc2)C[C@H]2O[C@]1(C)n1c3ccccc3c3c4c(c5c6ccccc6n2c5c31)C(=O)NC4 [CGP 41 251]
[1]
  oncogenic ras-p21-induced oocyte maturation / mitogenic signaling in oocytes: blocks oncogenic ras-p21-induced oocyte maturation
[2]
  effect on TUC-3 cells: induces both necrosis and phenotypic reversion of TUC-3 cells
  growth of revertant TUC-3 cells in soft agar: fail to grow in soft agar
[3]
  cytotoxicity to BMRPA1 cells: cytotoxic to BMRPA1 cells
[4]
  insulin-activated wild-type ras-p21-induced oocyte maturation / signaling: much less effect

## CC[C@H](C)[C@H](NC(=O)[C@@H](NC(=O)[C@@H](NC(=O)[C@H](CCC(N)=O)NC(=O)[C@H](CCCCN)NC(=O)[C@H](CCCNC(=N)N)NC(=O)[C@H](Cc1ccc(O)cc1)NC(=O)[C@H](CO)NC(=O)[C@H](CC(=O)O)NC(=O)[C@H](CCC(=O)O)NC(=O)[C@@H](NC(=O)[C@@H](N)[C@@H](C)O)[C@@H](C)CC)C(C)C)C(C)C)C(=O)N[C@@H](CC(=O)O)C(=O)O [PNC-7, TIEDSYRKQVVID] (H-TIEDSYRKQVVID-OH)
[5]
  cytotoxicity: lack of cytotoxicity
  effect on growth of BMRPA1 cells: no apparent effects

## CC[C@H](C)[C@H](NC(=O)[C@H](CCCNC(=N)N)NC(=O)[C@H](CCCCN)NC(=O)CNC(=O)[C@@H](NC(=O)[C@H](CO)NC(=O)[C@H](Cc1ccccc1)NC(=O)[C@@H]1CCCN1C(=O)[C@@H](N)CCSC)[C@@H](C)O)C(=O)N[C@@H](CCSC)C(=O)N[C@@H](CC(C)C)C(=O)NCC(=O)N[C@@H](CCC(=O)O)C(=O)N[C@@H](CCCCN)C(=O)N[C@@H](CCCCN)C(=O)N[C@@H](Cc1c[nH]c2ccccc12)C(=O)N[C@@H](CCCCN)C(=O)N[C@@H](CCSC)C(=O)N[C@@H](CCCNC(=N)N)C(=O)N[C@@H](CCCNC(=N)N)C(=O)N[C@@H](CC(N)=O)C(=O)N[C@@H](CCC(N)=O)C(=O)N[C@@H](Cc1ccccc1)C(=O)N[C@@H](Cc1c[nH]c2ccccc12)C(=O)N[C@H](C(=O)N[C@@H](CCCCN)C(=O)N[C@H](C(=O)N[C@@H](CCC(N)=O)C(=O)N[C@@H](CCCNC(=N)N)C(=O)NCC(=O)O)C(C)C)C(C)C [X13-leader, reference compound]
[5]
  effect on morphology of BMRPA1 cells: no effect

## N[C@@H](Cc1ccc(O)cn1)C(=O)O [azatyrosine, reference compound]
[1]
  oncogenic ras-p21-induced oocyte maturation / mitogenic signaling in oocytes: selectively blocks oncogenic ras-p21-induced oocyte maturation

## PNC-2-leader: ras-p21 residues 96-110 (SEQ ID NO:1) with penetratin leader KKWKMRRNQFWVKVQRG attached to its carboxyl terminal end (YREQIKRVKDSDVPKKWKMRRNQFWVKVQRG; amino acid residues 96-110 of oncogenic ras-p21 protein)
[6]; cells treated two weeks with 100 ug/ml peptide, explanted subcutaneously
  tumor formation by morphologically revertant TUC-3 cells in nude mice: fail to form tumors up to two months after reversion
[7]
  lowest concentration at which the morphological reversion of TUC-3 cells was achieved: 1 ug/ml
[7]; 1 ug/ml, after two weeks
  phenotypic reversion of TUC-3 cells: complete phenotypic reversion
[7]; 100 μg/ml, 1 week (FIG. 2A)
  change in cell morphology of TUC-3 cells: the cells grow into contact-inhibited monolayers and show distinct cell boundaries
[7]; after one day of treatment (FIG. 2B: 100 μg/ml)
  phenotypic reversion of TUC-3 cells: foci of acinar cellular differentiation appear

## PNC-7-leader: ras-p21 residues 35-47 (TIEDSYRKQVVID, SEQ ID NO:2) with penetratin leader KKWKMRRNQFWVKVQRG attached to its carboxyl terminal end (TIEDSYRKQVVIDKKWKMRRNQFWVKVQRG; peptide amino acid residues 35-47 of oncogenic ras-p21 protein)
[7]; 100 and 200 ug/ml (FIG. 2C: two weeks)
  phenotypic reversion of TUC-3 cells: phenotypic reversion of the cells
[7]; after two weeks of incubation
  concentration at which complete reversion of TUC-3 cells was achieved: ≥ 100 µg/mL

## YREQIKRVKDSDDVP (YREQIKRVKDSDVP; amino acid residues 96-110 of oncogenic ras-p21 protein) [PNC-2]
[6]; day 0
  Tumor Nodule Size: 0.0 mm
[6]; day 7
  Tumor Nodule Size: 0.0 mm
[6]; day 14
  Tumor Nodule Size: 0.0 mm
[6]; day 21
  Tumor Nodule Size: 0.0 mm
[6]; day 28
  Tumor Nodule Size: 0.0 mm
[6]; day 42
  Tumor Nodule Size: 0.0 mm
[6]; day 56
  Tumor Nodule Size: 0.0 mm
[1]
  oncogenic ras-p21-induced oocyte maturation / mitogenic signaling in oocytes: block mitogenic signaling by oncogenic ras-p21 in oocytes; also recorded: block oncogenic ras-induced oocyte maturation
[5]
  cytotoxicity: lack of cytotoxicity
  effect on growth of BMRPA1 cells: no apparent effects
[8]
  co-precipitation of raf, MEK, JNK and MAPK with Val 12-ras-p21: none of these proteins precipitated with Val 12-ras-p21 although there is still some binding to raf
[9]
  interferes with / blocks Val 12-p21-JNK interaction: blocks oncogenic ras-p21-JNK interactions; also recorded: blocks the interaction of Val 12-p21 with JNK; also recorded: interferes with Val 12-p21-JNK interaction
[4]
  insulin-activated wild-type ras-p21-induced oocyte maturation / signaling: little effect; also recorded: do not block insulin-activated wild type ras-induced maturation
[7]
  phenotypic reversion of TUC-3 cells: 100%
[10]
  Val 12-p21-induced oocyte maturation: strongly inhibits maturation

— patent US9115213B2, “Phenotypic reversion of pancreatic carcinoma cells” (The Research Foundation of State University of New York, priority 2004, dated 2015)
